Laboratory results as given in patent US6737383B1, “Herbicidal oxadiazolidines” (priority 1999, dated 2004).

Assays:
velvetleaf = assay: Test B pre/postemergence velvetleaf; type: in vivo, Abutilon theophrasti
Summary of the method: (§1)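 Response is a visual 0-to-10 score relative to untreated plants, where 0 means no effect and 10 means complete control, taken twelve to sixteen days after application. Treatments went onto soil at planting and onto foliage of 1- to 4-leaf plants, using a surfactant-containing non-phytotoxic solvent.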

soybean = assay: Test B pre/postemergence soybean; type: in vivo, Glycine max
Summary of the method: as §1

bedstraw = assay: Test B pre/postemergence bedstraw; type: in vivo, Galium aparine
Summary of the method: as §1

blackgrass = assay: Test B pre/postemergence blackgrass; type: in vivo, Alopecurus myosuroides
Summary of the method: as §1

[1] = Postemergence, Rate 62 g/ha, scale 0 to 10, 0 is no effect, 10 is complete control
[2] = Postemergence, Rate 250 g/ha, scale 0 to 10, 0 no effect, 10 complete control
[3] = Preemergence, Rate 62 g/ha, scale 0 to 10 (0 no effect, 10 complete control)
[4] = Preemergence, Rate 125 g/ha, scale 0 to 10 (0 no effect, 10 complete control)
[5] = Preemergence, Rate 250 g/ha, scale of 0 to 10 where 0 is no effect and 10 is complete control
[6] = Preemergence, Rate 500 g/ha, scale 0 (no effect) to 10 (complete control)
[7] = Rate 125 g/ha, Postemergence, scale 0 to 10, 0 no effect, 10 complete control
[8] = Rate 500 g/ha, Postemergence, scale 0 to 10, 0 no effect, 10 complete control
[9] = Preemergence, Rate 62 g/ha, scale of 0 to 10 where 0 is no effect and 10 is complete control
[10] = Preemergence, Rate 500 g/ha, scale of 0 to 10 where 0 is no effect and 10 is complete control
[11] = Rate 62 g/ha, Postemergence, scale of 0 to 10 where 0 is no effect and 10 is complete control
[12] = Rate 125 g/ha, Postemergence, scale 0 to 10
[13] = Rate 125 g/ha, Preemergence, scale of 0 to 10 where 0 is no effect and 10 is complete control
[14] = Postemergence, Rate 125 g/ha, scale 0 to 10, 0 is no effect, 10 is complete control
[15] = Rate 62 g/ha, Postemergence, scale 0 to 10 (0 no effect, 10 complete control)
[16] = Postemergence, Rate 1000 g/ha, scale 0 to 10 (0 no effect, 10 complete control)
[17] = Rate 1000 g/ha, Preemergence, scale 0 to 10 (0 no effect, 10 complete control)
[18] = Rate 500 g/ha, Postemergence, 0 to 10 scale (0 no effect, 10 complete control)

Cc1cc(C)c(-n2c(=O)on(C(=O)N(c3ccc(Cl)cc3)C(C)C)c2=O)c(C)c1 [Compound 61]
Velvetleaf plant response rating (velvetleaf; [1]): 0
Velvetleaf plant response rating (velvetleaf; [2]): 0
Velvetleaf plant response rating (velvetleaf; [3]): 0
Plant response rating, Velvetleaf (velvetleaf; [4]): 0
Plant response rating, Velvetleaf (velvetleaf; [5]): 0
Velvetleaf plant response rating (velvetleaf; [6]): 0
Velvetleaf plant response rating (velvetleaf; [7]): 0
Velvetleaf plant response rating (velvetleaf; [8]): 0
Soybean plant response rating (soybean; [1]): 1
Soybean plant response rating (soybean; [2]): 4
Soybean plant response rating (soybean; [3]): 0
Plant response rating, Soybean (soybean; [4]): 0
Plant response rating, Soybean (soybean; [5]): 0
Soybean plant response rating (soybean; [6]): 0
Soybean plant response rating (soybean; [7]): 3
Soybean plant response rating (soybean; [8]): 5
Bedstraw plant response rating (bedstraw; [1]): 2
Bedstraw plant response rating (bedstraw; [2]): 6
Bedstraw plant response rating (bedstraw; [3]): 0
Plant response rating, Bedstraw (bedstraw; [4]): 0
Plant response rating, Bedstraw (bedstraw; [5]): 2
Bedstraw plant response rating (bedstraw; [6]): 2
Bedstraw plant response rating (bedstraw; [7]): 3
Blackgrass plant response rating (blackgrass; [1]): 0
Blackgrass plant response rating (blackgrass; [2]): 6
Blackgrass plant response rating (blackgrass; [3]): 0
Plant response rating, Blackgrass (blackgrass; [4]): 0
Plant response rating, Blackgrass (blackgrass; [5]): 5
Blackgrass plant response rating (blackgrass; [6]): 6
Blackgrass plant response rating (blackgrass; [7]): 3
Blackgrass plant response rating (blackgrass; [8]): 7

CCc1ccc(N(C(=O)n2oc(=O)n(-c3ccccc3C)c2=O)C(C)C)cc1 [Compound 230]
Velvetleaf plant response rating (velvetleaf; [9]): 0
Velvetleaf plant response rating (velvetleaf; [5]): 0
Plant response rating, Velvetleaf (velvetleaf; [10]): 0
Velvetleaf plant response rating (velvetleaf; [11]): 0
Velvetleaf plant response rating (velvetleaf; [12]): 0
Velvetleaf plant response rating (velvetleaf; [13]): 0
Plant response rating (0 to 10; 0 is no effect, 10 is complete control), Velvetleaf (velvetleaf; Rate 250 g/ha, Postemergence): 0
Velvetleaf plant response rating (velvetleaf; [8]): 0
Soybean plant response rating (soybean; [9]): 0
Soybean plant response rating (soybean; [5]): 0
Plant response rating, Soybean (soybean; [10]): 0
Soybean plant response rating (soybean; [11]): 0
Soybean plant response rating (soybean; [12]): 0
Soybean plant response rating (soybean; [13]): 0
Plant response rating (0 to 10; 0 is no effect, 10 is complete control), Soybean (soybean; Rate 250 g/ha, Postemergence): 4
Soybean plant response rating (soybean; [8]): 5
Bedstraw plant response rating (bedstraw; [9]): 0
Bedstraw plant response rating (bedstraw; [5]): 0
Plant response rating, Bedstraw (bedstraw; [10]): 0
Bedstraw plant response rating (bedstraw; [11]): 0
Bedstraw plant response rating (bedstraw; [12]): 0
Bedstraw plant response rating (bedstraw; [13]): 0
Plant response rating (0 to 10; 0 is no effect, 10 is complete control), Bedstraw (bedstraw; Rate 250 g/ha, Postemergence): 0
Bedstraw plant response rating (bedstraw; [8]): 0
Blackgrass plant response rating (blackgrass; [9]): 0
Blackgrass plant response rating (blackgrass; [5]): 0
Plant response rating, Blackgrass (blackgrass; [10]): 2
Blackgrass plant response rating (blackgrass; [11]): 0
Blackgrass plant response rating (blackgrass; [12]): 0
Blackgrass plant response rating (blackgrass; [13]): 0
Plant response rating (0 to 10; 0 is no effect, 10 is complete control), Blackgrass (blackgrass; Rate 250 g/ha, Postemergence): 0
Blackgrass plant response rating (blackgrass; [8]): 0

Cc1ccccc1-n1c(=O)on(C(=O)N(c2ccc(Cl)cc2)C(C)C2CC2)c1=O (stereo not shown) [Compound 330]
Plant response rating, Velvetleaf (velvetleaf; [14]): 0
Velvetleaf plant response rating (velvetleaf; [9]): 0
Velvetleaf plant response rating (0 to 10 scale) (velvetleaf; Preemergence, Rate 125 g/ha): 0
Velvetleaf plant response rating (velvetleaf; [5]): 0
Velvetleaf plant response rating (velvetleaf; [10]): 0
Velvetleaf plant response rating (velvetleaf; [15]): 0
Plant response rating, Velvetleaf (velvetleaf; [8]): 0
Plant response rating, Soybean (soybean; [14]): 1
Soybean plant response rating (soybean; [9]): 0
Soybean plant response rating (0 to 10 scale) (soybean; Preemergence, Rate 125 g/ha): 0
Soybean plant response rating (soybean; [5]): 0
Soybean plant response rating (soybean; [10]): 0
Soybean plant response rating (soybean; [15]): 1
Plant response rating, Soybean (soybean; [8]): 1
Plant response rating, Bedstraw (bedstraw; [14]): 0
Bedstraw plant response rating (0 to 10 scale) (bedstraw; Preemergence, Rate 125 g/ha): 0
Bedstraw plant response rating (bedstraw; [5]): 0
Bedstraw plant response rating (bedstraw; [10]): 0
Bedstraw plant response rating (bedstraw; [15]): 0
Plant response rating, Blackgrass (blackgrass; [14]): 0
Blackgrass plant response rating (blackgrass; [9]): 0
Blackgrass plant response rating (0 to 10 scale) (blackgrass; Preemergence, Rate 125 g/ha): 0
Blackgrass plant response rating (blackgrass; [5]): 0
Blackgrass plant response rating (blackgrass; [15]): 0
Plant response rating, Blackgrass (blackgrass; Rate 250 g/ha, Postemergence, scale of 0 to 10 where 0 is no effect and 10 is complete control): 0
Plant response rating, Blackgrass (blackgrass; [8]): 0

CCN(Cc1ccccc1)C(=O)n1oc(=O)n(-c2c(C)cccc2C)c1=O [Compound 70]
Velvetleaf plant response rating (velvetleaf; [1]): 0
Velvetleaf plant response rating (velvetleaf; [2]): 0
Velvetleaf plant response rating (velvetleaf; [3]): 0
Plant response rating, Velvetleaf (velvetleaf; [4]): 0
Plant response rating, Velvetleaf (velvetleaf; [5]): 0
Velvetleaf plant response rating (velvetleaf; [6]): 0
Velvetleaf plant response rating (velvetleaf; [7]): 0
Velvetleaf plant response rating (velvetleaf; [8]): 0
Soybean plant response rating (soybean; [1]): 0
Soybean plant response rating (soybean; [2]): 0
Soybean plant response rating (soybean; [3]): 0
Plant response rating, Soybean (soybean; [4]): 0
Plant response rating, Soybean (soybean; [5]): 0
Soybean plant response rating (soybean; [6]): 0
Soybean plant response rating (soybean; [7]): 0
Soybean plant response rating (soybean; [8]): 0
Bedstraw plant response rating (bedstraw; [1]): 0
Bedstraw plant response rating (bedstraw; [2]): 0
Bedstraw plant response rating (bedstraw; [3]): 0
Plant response rating, Bedstraw (bedstraw; [4]): 0
Plant response rating, Bedstraw (bedstraw; [5]): 0
Bedstraw plant response rating (bedstraw; [6]): 0
Bedstraw plant response rating (bedstraw; [7]): 0
Bedstraw plant response rating (bedstraw; [8]): 0
Blackgrass plant response rating (blackgrass; [1]): 0
Blackgrass plant response rating (blackgrass; [2]): 0
Blackgrass plant response rating (blackgrass; [3]): 0
Plant response rating, Blackgrass (blackgrass; [4]): 0
Plant response rating, Blackgrass (blackgrass; [5]): 0
Blackgrass plant response rating (blackgrass; [6]): 0
Blackgrass plant response rating (blackgrass; [7]): 0
Blackgrass plant response rating (blackgrass; [8]): 0

CCN(CC)C(=O)n1oc(=O)n(-c2c(C)cccc2C)c1=O [Compound 2]
Velvetleaf plant response rating (velvetleaf; [2]): 0
Velvetleaf plant response rating (velvetleaf; [16]): 0
Plant response rating, Velvetleaf (velvetleaf; [4]): 0
Plant response rating, Velvetleaf (velvetleaf; [5]): 0
Velvetleaf plant response rating (velvetleaf; [6]): 0
Velvetleaf plant response rating (velvetleaf; [7]): 0
Plant response rating, Velvetleaf (velvetleaf; [17]): 2
Soybean plant response rating (soybean; [2]): 1
Soybean plant response rating (soybean; [16]): 4
Plant response rating, Soybean (soybean; [4]): 0
Plant response rating, Soybean (soybean; [5]): 0
Soybean plant response rating (soybean; [6]): 0
Soybean plant response rating (soybean; [7]): 0
Plant response rating, Soybean (soybean; [17]): 3
Bedstraw plant response rating (bedstraw; [2]): 0
Bedstraw plant response rating (bedstraw; [16]): 0
Plant response rating, Bedstraw (bedstraw; [4]): 0
Plant response rating, Bedstraw (bedstraw; [5]): 0
Bedstraw plant response rating (bedstraw; [6]): 0
Bedstraw plant response rating (bedstraw; [7]): 0
Bedstraw plant response rating (bedstraw; [18]): 0
Plant response rating, Bedstraw (bedstraw; [17]): 0
Blackgrass plant response rating (blackgrass; [2]): 4
Blackgrass plant response rating (blackgrass; [16]): 9
Plant response rating, Blackgrass (blackgrass; [4]): 0
Plant response rating, Blackgrass (blackgrass; [5]): 0
Blackgrass plant response rating (blackgrass; [6]): 0
Blackgrass plant response rating (blackgrass; [7]): 0
Blackgrass plant response rating (blackgrass; [18]): 8
Plant response rating, Blackgrass (blackgrass; [17]): 7
